Like-named read-outs stand apart in the source and are kept apart here.

For data set [1], the system named is LimF. As to the kind of experiment: His-prenylation of low molecular weight compounds, peptides and proteins by LimF. Type of data set: biochemical, Limnothrix sp. CACIAM 69d. To be noted: 125 μM substrate, 100 μM LimF, 2 mM GPP, 20 hours, standard conditions. The source says:
Next, various low molecular weight compounds, peptides, and proteins, including various compounds that have already been approved as pharmaceuticals, were subjected to His-prenylation facilitated by LimF.

The next data set concerns the target DPP-4 (Homo sapiens, UniProt P27487). Put plainly: DPP-4 digestion test. To be noted: 5 μM peptide, Tris-Cl pH 8.0, 2.5 ng/L DPP-4, 37° C.
The next data set can be described thus: Serum stability test. The following applies: 5 μM peptide in human serum at 37° C.
In another data set the target is T1, GLP1R (Homo sapiens, UniProt P43220).
T1 construct: host or cells: CHO-K1
T1 sequence (P43220 24-463): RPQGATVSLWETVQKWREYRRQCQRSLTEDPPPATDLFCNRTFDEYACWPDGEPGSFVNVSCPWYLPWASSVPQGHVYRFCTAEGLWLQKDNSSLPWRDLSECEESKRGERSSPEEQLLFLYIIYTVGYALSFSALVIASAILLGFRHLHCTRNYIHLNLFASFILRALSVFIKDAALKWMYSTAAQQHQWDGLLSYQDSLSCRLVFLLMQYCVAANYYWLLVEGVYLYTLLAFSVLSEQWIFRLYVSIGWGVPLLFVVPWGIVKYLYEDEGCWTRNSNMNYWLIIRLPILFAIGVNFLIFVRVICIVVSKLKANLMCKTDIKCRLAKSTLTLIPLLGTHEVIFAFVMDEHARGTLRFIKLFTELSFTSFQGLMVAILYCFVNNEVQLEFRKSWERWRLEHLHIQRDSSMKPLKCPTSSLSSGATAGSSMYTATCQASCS
Put plainly: cAMP production activation test (cAMP Hunter eXpress GLP1R CHO-K1 GPCR assay kit). Type of data set: cell-based. The following applies: GLP1R CHO-K1 cells. The procedure:
The concentration range of the used peptides was from 0.33 μM to 20 nM.

The test system of data set [2] is LynF. The following applies: Tyr C5 O-prenylation; cited from earlier work.
The next data set deals with Vib-PT. To be noted: Aromatic C5 O-prenylation; cited from earlier work.
A further data set has as its target T2, FtmPT2 (Aspergillus fumigatus, UniProt Q4WAX1).
T2 sequence (Q4WAX1 1-427): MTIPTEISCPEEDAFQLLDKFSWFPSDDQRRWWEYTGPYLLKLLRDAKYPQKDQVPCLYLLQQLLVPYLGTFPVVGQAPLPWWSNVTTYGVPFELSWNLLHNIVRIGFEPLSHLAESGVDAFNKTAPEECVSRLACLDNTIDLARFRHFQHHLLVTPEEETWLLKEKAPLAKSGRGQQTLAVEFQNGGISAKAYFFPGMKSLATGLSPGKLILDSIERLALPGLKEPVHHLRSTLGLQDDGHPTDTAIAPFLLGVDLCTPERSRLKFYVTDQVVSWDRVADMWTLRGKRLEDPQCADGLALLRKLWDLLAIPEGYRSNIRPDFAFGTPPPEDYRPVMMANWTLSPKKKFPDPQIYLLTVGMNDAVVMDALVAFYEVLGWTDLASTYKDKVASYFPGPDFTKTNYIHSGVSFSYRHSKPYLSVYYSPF
To be noted: Aromatic C5 N-prenylation; cited from earlier work.

Data set [3] concerns LimF. As to the kind of experiment: LimF prenylation of His monomers and His-containing dipeptides. Type of data set: biochemical, Limnothrix sp. CACIAM 69d. To be noted: prenyl group donor GPP; 100 μM LimF, 20 hours. The procedure: The optimization conditions were as follows: 1 mM GPP, 40 mM MgCl2, 1 mM dithiothreitol (DTT), pH 7.2, and reaction temperature 25° C. The reaction conditions described above were used below except where otherwise stated.
• A reaction was performed for 20 hours with 100 μM LimF.
Furthermore, when a prenylation reaction facilitated by 20 μM LimF was applied not only to Ac-AH-NH2, but also to various His-containing dipeptides, it became clear that a His prenylation reaction facilitated by LimF progressed for various His-containing dipeptides (FIG. 6).

Data set [4] concerns PagF. To be noted: Tyr C5 O-prenylation; cited from earlier work.
For a further data set, the system named is AcyF. To be noted: Trp C5 N-prenylation; cited from earlier work.
The test system of data set [5] is LimF. As to the kind of experiment: Prenylation of high molecular weight proteins by LimF (MALDI-TOF-MS). It is filed as biochemical, Limnothrix sp. CACIAM 69d. The following applies: 10 μM protein, 10 μM LimF, 2 mM GPP, 20 hours. The procedure:
Moreover, His-prenylation by LimF was also performed for two types of high molecular weight proteins (acetylated bovine-derived albumin (Ac-BSA (Wako Pure Chemical Industries)) and horse-derived glutathione-S-transferase (GST (Sigma-Aldrich Japan))). Specifically, 10 μM Ac-BSA or 10 μM GST was reacted for 20 hours in the presence of 10 μM LimF and 2 mM GPP under previously optimized standard conditions. After desalting the reaction solution after the reaction by solid phase extraction (SPE C-TIP (Nikkyo Technos)), using sinapinic acid as a matrix, analysis was performed using a matrix-assisted laser desorption ionization-time-of-flight mass spectrometer (MALDI-TOF-MS, ultrafleXtreme manufactured by Bruker Daltonics).

Data set [6] has as its system LynF. To be noted: Tyr C5 O-prenylation; cited from earlier work. The source holds these as a separate data set.
Data set [7] concerns PagF. To be noted: Tyr C5 O-prenylation; cited from earlier work. The source holds these as a separate data set.
The target in a further data set is T3, teR6-H5A.
T3 chain: FRGNATYIPC

The next data set deals with T4, bcLimE2.
T4 chain: RYPHEEIP

Sequence of DPP-4 (P27487 whole entry, species assumed): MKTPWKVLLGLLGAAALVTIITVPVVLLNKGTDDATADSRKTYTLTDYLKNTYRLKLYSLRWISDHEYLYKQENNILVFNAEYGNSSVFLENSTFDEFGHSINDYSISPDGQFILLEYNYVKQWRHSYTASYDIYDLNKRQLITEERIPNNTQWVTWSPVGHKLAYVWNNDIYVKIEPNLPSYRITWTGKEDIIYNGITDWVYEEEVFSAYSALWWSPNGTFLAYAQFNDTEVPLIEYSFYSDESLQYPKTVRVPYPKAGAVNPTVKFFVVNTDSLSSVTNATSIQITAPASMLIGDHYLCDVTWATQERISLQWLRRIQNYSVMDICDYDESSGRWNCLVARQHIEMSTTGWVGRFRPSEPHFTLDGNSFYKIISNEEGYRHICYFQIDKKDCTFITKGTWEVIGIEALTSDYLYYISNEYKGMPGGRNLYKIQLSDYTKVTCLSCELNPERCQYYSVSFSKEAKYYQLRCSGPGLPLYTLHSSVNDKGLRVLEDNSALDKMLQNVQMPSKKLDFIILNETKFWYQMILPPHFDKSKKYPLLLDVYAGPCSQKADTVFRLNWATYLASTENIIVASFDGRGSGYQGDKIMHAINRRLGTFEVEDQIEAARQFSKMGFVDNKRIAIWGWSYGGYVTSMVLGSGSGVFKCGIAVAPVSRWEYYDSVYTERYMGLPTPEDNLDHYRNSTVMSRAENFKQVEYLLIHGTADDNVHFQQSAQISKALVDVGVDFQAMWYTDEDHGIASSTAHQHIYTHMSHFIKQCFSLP
Protocol for DPP-4: After various incubation times, a sample of 4 μL was taken from the reaction system, and the reaction was stopped by adding 4 times the amount (16 L) of a 1% TFA-aqueous solution. After centrifugation at 13,000 rpm for 5 minutes, 1 μL of the supernatant was measured by LC/MS, and the amount of each remaining peptide was quantified.
Protocol for Serum stability test: After various incubation times, a sample of 4 μL was taken from the reaction system, and the reaction was stopped by mixing with an equal amount (4 L) of methanol. After centrifugation at 13,000 rpm for 5 minutes, the supernatant was collected, and after adding 4 times the amount of 1% TFA-aqueous solution, centrifugation was performed for an additional 5 minutes. 1 μL of the obtained supernatant was measured by LC/MS, and the amount of each remaining peptide was quantified.

On to `CC[C@H](C)[C@H](NC(=O)C(Cc1ccccc1)NC(=O)[C@H](CCC(=O)O)NCCCCN[C@@H](CCCCN)C(=O)C(=O)[C@H](C)NC(=O)C(CCC(N)=O)NC(=O)CNC(=O)C(CCC(=O)O)NC(=O)[C@H](CC(C)C)NC(=O)C(Cc1ccc(O)cc1)NC(=O)[C@H](CO)NC(=O)C(CO)NCCCCN[C@H](C(=O)C(=O)[C@H](CC(N)=O)NC(=O)C(CO)NC(=O)[C@@H](NC(=O)C(Cc1ccccc1)NC(=O)[C@@H](NC(=O)CNC(=O)[C@H](CCC(=O)O)NC(=O)C(C)NC(=O)[C@@H](N)Cc1cnc[nH]1)[C@@H](C)O)[C@@H](C)O)C(C)C)C(=O)NC(C)C(=O)N[C@@H](Cc1c[nH]c2ccccc12)C(=O)NC(CC(C)C)C(=O)N[C@H](C(=O)NC(CCCCN)C(=O)NCC(=O)C(=O)[C@H](CCCNC(=N)N)NN)C(C)C` (stereo partly shown) [GLP-1, HAEGTFTSDVSSYLEGGAAKEFIAWLVKGR], for which the “His-prenylation efficiency (LC/MS)” value in the data set on LimF [1] is on record as 75%. Also, at DPP-4, the “stability in DPP-4 digestion test (remaining peptide by LC/MS)” value is recorded as “rapid degradation”. Besides, the “serum stability (remaining peptide by LC/MS)” value in the data set “Serum stability test” is given as “rapid degradation”. Further, the “cAMP production activation ability” value at GLP1R is recorded as “strongly activated cAMP production”.
On to “FAEGTFTSDVSSYLEGGAAKEFIAWLVHGR [GLP-1_H7F/K34H]”, for which the “cAMP production activation ability” value on GLP1R is “activity comparable to that of natural GLP-1”.
As to cyclo[APMPPYP] (head-to-tail cyclized), in the data set on LynF [2], the Kcat was 0.00367 s⁻¹ and the Michaelis-Menten constant (Km) is 4.2 mM.
Regarding `OCc1ccc(O)cc1` [4-hydroxy-benzenemethanol], in the data set with Vib-PT, the Kcat was 0.000783 s⁻¹ and the Michaelis constant (Km) is 2.05 mM.
Consider `COc1ccc2c3c([nH]c2c1)[C@H](C=C(C)C)N1C(=O)[C@@H]2CCCN2C(=O)[C@]1(O)[C@H]3O` [12,13-dihydroxyfumitremorgin C], for which, on FtmPT2, the Kcat is 0.03 s⁻¹ and the Michaelis constant (Km) is 0.096 mM.
With `O=C(N[C@@H](Cc1cnc[nH]1)C(=O)O)OCC1c2ccccc2-c2ccccc21` [Fmoc-His, Fmoc-His-OH], the “Modification Efficiency %” value in the data set on LimF [3] was 15.2 ± 0.8%.
On the same count and under the same terms, the result for Ac-AH-NH2 [Ac—AH—NH2] reads above 99%; that for `N[C@@H](Cc1c[nH]cn1)C(=O)O` [Free His, H-His-OH], 34.9 ± 0.7%.
In the case of cyclo[INPYLYP] (head-to-tail cyclized), in the data set on PagF [4], the Kcat was 0.123 s⁻¹ and the Km was 0.00022 mM.
In the case of “cyclo[TSQIWGSPVP] (head-to-tail cyclized)”, in the data set on AcyF, the Kcat is 0.158 s⁻¹ and the Km is 3.32 mM.
“Ac-BSA: acetylated bovine-derived albumin”: the “number of prenylations by LimF (mass spectrum)” value in the data set on LimF [5] is listed as “two locations”.
For the molecule `CC(C)(C)OC(=O)N[C@@H](Cc1ccc(O)cc1)C(=O)O` [N-boc-L-Tyr], in the data set on LynF [6], the Kcat was 0.0177 s⁻¹ and the Km was 14 mM. Further, in the data set with PagF [7], the Kcat was 0.183 s⁻¹ and the Michaelis-Menten constant (Km) was 6.2 mM.

B1: LimF (wild-type) (protein)
chain: MKKRKSSKVFKSTIAPEEKLRYIGNHKQAFDIEPLYPLALFEEFVATTGDCIIECSGKIKQDQLYPARIDLQFSDKHHFHNIHTSIDFLKRAASRTDVNLNLDILATFLAGNFDYSKVQNILAGIDLRQNLGESKLKLFIRIGDYPAKMAVAKHLCNITPESEAMLRSDTLHIGFDFYLDGRSAIELYPELKKDEFNHPFIYNQLKTILSPEALKPLPLCNLFGIGLSPANEANVLYYHLENIEDFLSYFPINDTARRVHDFYLQQEGSRRMWVALSESEMKAGRINNVNLYYSKAFTSQNP
As for B1, the Km (mM), steady-state kinetics of Tyr-prenylation with GPP in the data set with teR6-H5A amounted to 7.3 mM. Also, the Km (mM), steady-state kinetics of His-prenylation with GPP in the data set with bcLimE2 turned out to be 0.31 mM.
